The results in this text go back to patent US4451461A, “10-(1-Aza-[2,2,2)-bicyclo-3-octyl]-10H-2-phenothiazinesulfonamide and derivatives thereof” (Pharmindustrie, priority 1981, dated 1984).

The subject of the experiment is gastric hypersecretion stimulated by pentagastrine (Heidenhein pouch dogs). The experiment is described as follows: Anti-secretory activity against pentagastrine-stimulated gastric hypersecretion in dogs fitted with the Heidenhein pouch. Conditions: for ED50 (dose which reduces the hourly acid output by 50% during the 3rd or 4th hour in relation to the second hour of perfusion): p.o., gelatine capsule, 1.5 h after start of pentagastrine perfusion, dogs, doses expressed as base. The format is in vivo, dog (mongrels). The protocol: The anti-secretory activity of the compounds of formula (I) according to the invention has been investigated in cases of gastric hypersecretion which has been stimulated by pentagastrine in dogs fitted with the Heidenhein pouch.
Three mongrels, fitted with the Heidenhein pouch and not having eaten for 18 hours, were given a veinous perfusion of […] pentagastrine, at a volume of 30 ml/hour for 4 hours. The secretion in the pouch was collected in a bottle which was changed every 15 minutes. 1.5 hours after commencement of the perfusion, the product to be investigated was administered orally in an h°000 gelatine-coated capsule. The effective dose 50% (ED50) is the dose which reduces the hourly acid output by 50% during the 3rd or 4th hour of the experiment in relation to the acid output of the second hour of perfusion. The doses are expressed as a product in basic form.

As to `CNS(=O)(=O)c1ccc2c(c1)N(C1CN3CCC1CC3)c1ccccc1S2` (stereo not shown) [Example 2, N-METHYL-10-[1-AZA-(2,2,2)-BICYCLO-3-OCTYL]-10H-2-PHENOTHIAZINESULFONAMIDE], the “ED50 (dose which reduces the hourly acid output by 50% during the 3rd or 4th hour in relation to the second hour of perfusion)” value is given as 0.7 mg/kg. The “activity compared with cimetidine (in words)” value (Heidenhein pouch dogs, oral, vs cimetidine) is reported as “more active than cimetidine”.
Consider `CN/C(=N/CCSCc1nc[nH]c1C)NC#N` [Cimetidine], for which the “ED50 (dose which reduces the hourly acid output by 50% during the 3rd or 4th hour in relation to the second hour of perfusion)” value was determined as 2.3 mg/kg.
With `CN(C)S(=O)(=O)c1ccc2c(c1)N(C1CN3CCC1CC3)c1ccccc1S2` (stereo not shown) [N,N-dimethyl-10-[1-aza-(2,2,2)-bicyclo-3-octyl]-10H-2-phenothiazinesulfonamide], the “ED50 (dose which reduces the hourly acid output by 50% during the 3rd or 4th hour in relation to the second hour of perfusion)” value is 1.25 mg/kg.
